The values that follow are results of earlier work, collected in patent US20180333418A1, “USE OF PAN FGFR INHIBITORS AND METHOD OF IDENTIFYING PATIENTS WITH CANCER ELIGIBLE FOR TREATMENT WITH A PAN FGFR INHIBITOR” (BAYER PHARMA AKTIENGESELLSCHAFT, priority 2014, published 2018).

Molecules are shown by their SMILES.

For data set [1], the system named is ovarian cancer cell line A2780. Particulars: Guagnano et al.; cited from earlier work.
In data set [2] the test system is FGFR1-amplified osteosarcoma cell line G-292. Particulars: Guagnano et al.; cited from earlier work.

As for `CCN1CCN(c2ccc(Nc3cc(N(C)C(=O)Nc4c(Cl)c(OC)cc(OC)c4Cl)ncn3)cc2)CC1` [BGJ398], the “sensitivity in vitro towards treatment” value in data set [1] was “sensitive”. Moreover, in data set [2], the anti-proliferative effects result is reported as “anti-proliferative effects”.
